Measurements: patent publication US10295551B2, “Development and use of fluorescent probes of unbound bilirubin” (Alan Marc Kleinfeld, priority 2011, dated 2019)

Key:
[1] = target: T1, rI-FABP (SEQ ID NO: 3) variant L2P14 F7-KR14 - K27C, KR14-18G 27C 31M 72A (Rattus norvegicus, UniProt P02693, G32M/K101R/K126R/K17R/K21R/K28C/K30R/K38R/K47R/K51R/K89R/K8R/K93R/K95R/L73A/M19G); assay: bilirubin binding to L2P14F7-KR14-K27C probe; settings: Table 5, acrylodan
T1 construct: made in house
Procedure: (§1) Also described are analytical/mathematical methods for calibrating and using the bilirubin probes. Bilirubin probes are calibrated to determine their binding affinity for bilirubin (dissociation constant Kd) under conditions, such as temperature, pH and solution composition, that correspond to samples in which it is desired to know the unbound bilirubin concentration. Binding isotherms are performed in aqueous buffer by measuring the change in fluorescence of the bilirubin probes in response to increasing bilirubin concentrations (“titration data”). The set of fluorescence responses at each bilirubin concentration are fitted with an appropriate equation (“calibration equation”) that correctly describes the fluorescence response as a function of the bilirubin concentration, the probe concentration, specific spectroscopic characteristics, and the Kd.

[2] = target: T2, rI-FABP (SEQ ID NO: 3) variant BL22P1 B11 - 29C, MGI - KR14 - 14R 18L 27A 29C 38V 60R 73F 106L 115R 117D (Rattus norvegicus, UniProt P02693, A74F/K101R/K126R/K17R/K21R/K28A/K30C/K38R/K47R/K51R/K89R/K8R/K93R/K95R/L39V/L73A/M19L/Q116R/R107L/V61R/Y118D/Y15R); format: binding; settings: Table 5, Alexa Fluor 680 C2-maleimide
T2 construct: 6xHis (C); made in house
T2 sequence (P02693 with tags, fused parts or gaps with the stated changes): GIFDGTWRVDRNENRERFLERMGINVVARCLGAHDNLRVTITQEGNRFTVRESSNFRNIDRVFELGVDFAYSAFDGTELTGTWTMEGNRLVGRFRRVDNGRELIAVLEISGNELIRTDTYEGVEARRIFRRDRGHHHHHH
Procedure: as §1

[3] = target: T3, rI-FABP (SEQ ID NO: 3) variant L2P14 F7 - K27C, 18G 27C 31M 72A (Rattus norvegicus, UniProt P02693, G32M/K28C/L73A/M19G); assay: bilirubin binding to L2P14F7-K27C probe; settings: Table 5, acrylodan
T3 construct: made in house
T3 sequence (P02693 with tags, fused parts or gaps M19G/K28C/G32M/L73A): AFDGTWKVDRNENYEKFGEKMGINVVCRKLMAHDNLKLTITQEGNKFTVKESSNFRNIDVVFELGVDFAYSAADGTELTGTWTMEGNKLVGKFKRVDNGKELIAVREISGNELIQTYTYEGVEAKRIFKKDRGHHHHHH
Procedure: as §1

[4] = target: T4, rI-FABP (SEQ ID NO: 3) variant BL10P10 D10, 14F 18L 27C 38M 60Y 73F 106V 115R 117D (Rattus norvegicus, UniProt P02693, A74F/K28C/L39M/L73A/M19L/Q116R/R107V/V61Y/Y118D/Y15F); assay: bilirubin binding to BL10P10D10 probe; settings: Table 5, acrylodan
T4 construct: made in house
T4 sequence (P02693 with tags, fused parts or gaps Y15F/M19L/K28C/L39M/V61Y/L73A/A74F/R107V/Q116R/Y118D): as the sequence (P02693 with tags, fused parts or gaps M19G/K28C/G32M/L73A) above, with Y14F, G18L, M31G, L38M, V60Y, A73F, R106V, Q115R, Y117D counted along it
Procedure: as §1

[5] = target: T5, rI-FABP (SEQ ID NO: 3) variant L24P19 C7 K27K 24C, 14R 18L 24C 38V 60R 73F 106C 115R 117D (Rattus norvegicus, UniProt P02693, A74F/L39V/L73A/M19L/N25C/Q116R/R107C/V61R/Y118D/Y15R); assay: bilirubin binding to L24P19C7 24C probe; settings: Table 5, acrylodan
T5 construct: made in house
T5 sequence (P02693 with tags, fused parts or gaps Y15R/M19L/N25C/L39V/V61R/L73A/A74F/R107C/Q116R/Y118D): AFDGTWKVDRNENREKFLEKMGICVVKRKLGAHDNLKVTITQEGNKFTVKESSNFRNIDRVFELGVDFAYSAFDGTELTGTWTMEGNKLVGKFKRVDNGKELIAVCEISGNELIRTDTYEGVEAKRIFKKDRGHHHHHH
Procedure: as §1
(§2) . […] The optimal probe performance was obtained with cysteine at positions 25 or 26.

[6] = target: T6, rI-FABP (SEQ ID NO: 3) variant L2P14F7-MGCFD, MGCFD - 18G 31M 72A (Rattus norvegicus, UniProt P02693, A2G/G32M/INS2C/L73A/M19G); assay: bilirubin binding to L2P14F7-MGCFD probe; settings: Table 5, Texas Red C2-Maleimide
T6 construct: made in house
T6 sequence (P02693 with tags, fused parts or gaps M19G/G32M/L73A): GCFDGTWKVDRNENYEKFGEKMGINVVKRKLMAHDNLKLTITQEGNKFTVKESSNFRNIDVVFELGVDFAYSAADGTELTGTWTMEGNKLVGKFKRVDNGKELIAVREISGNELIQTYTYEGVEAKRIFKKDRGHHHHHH
Procedure: as §1

[7] = target: T7, rI-FABP (SEQ ID NO: 3) variant L24P19 C7 K27K 25C, 14R 18L 25C 38V 60R 73F 106C 115R 117D (Rattus norvegicus, UniProt P02693, A74F/L39V/L73A/M19L/Q116R/R107C/V26C/V61R/Y118D/Y15R); assay: bilirubin binding to L24P19C7 25C probe; settings: Table 5, acrylodan
T7 construct: made in house
T7 sequence (P02693 with tags, fused parts or gaps Y15R/M19L/V26C/L39V/V61R/L73A/A74F/R107C/Q116R/Y118D): as the sequence (P02693 with tags, fused parts or gaps Y15R/M19L/N25C/L39V/V61R/L73A/A74F/R107C/Q116R/Y118D) above, with C24N, V25C counted along it
Procedure: as §1, §2

[8] = target: T8, rI-FABP (SEQ ID NO: 3) variant L24P19 C7 K27K 26C, 14R 18L 26C 38V 60R 73F 106C 115R 117D (Rattus norvegicus, UniProt P02693, A74F/L39V/L73A/M19L/Q116R/R107C/V27C/V61R/Y118D/Y15R); assay: bilirubin binding to L24P19C7 26C probe; settings: Table 5, acrylodan
T8 construct: made in house
T8 sequence (P02693 with tags, fused parts or gaps Y15R/M19L/V27C/L39V/V61R/L73A/A74F/R107C/Q116R/Y118D): as the sequence (P02693 with tags, fused parts or gaps Y15R/M19L/N25C/L39V/V61R/L73A/A74F/R107C/Q116R/Y118D) above, with C24N, V26C counted along it
Procedure: as §1, §2

[9] = target: T9, rI-FABP (SEQ ID NO: 3) variant L24P19 C7 K27K 30C, 14R 18L 30C 38V 60R 73F 106C 115R 117D (Rattus norvegicus, UniProt P02693, A74F/L31C/L39V/L73A/M19L/Q116R/R107C/V61R/Y118D/Y15R); assay: bilirubin binding to L24P19C7 30C probe; settings: Table 5, acrylodan
T9 construct: made in house
T9 sequence (P02693 with tags, fused parts or gaps Y15R/M19L/L31C/L39V/V61R/L73A/A74F/R107C/Q116R/Y118D): as the sequence (P02693 with tags, fused parts or gaps Y15R/M19L/N25C/L39V/V61R/L73A/A74F/R107C/Q116R/Y118D) above, with C24N, L30C counted along it
Procedure: as §1, §2

[10] = target: T10, rI-FABP (SEQ ID NO: 3) variant L24P19C7-K27C, 14R 18L 27C 38V 60R 73F 106C 115R 117D (Rattus norvegicus, UniProt P02693, A74F/K28C/L39V/L73A/M19L/Q116R/R107C/V61R/Y118D/Y15R); assay: bilirubin binding to L24P19C7-K27C probe; settings: Table 5, acrylodan
T10 construct: made in house
T10 sequence (P02693 with tags, fused parts or gaps Y15R/M19L/K28C/L39V/V61R/L73A/A74F/R107C/Q116R/Y118D): as the sequence (P02693 with tags, fused parts or gaps Y15R/M19L/N25C/L39V/V61R/L73A/A74F/R107C/Q116R/Y118D) above, with C24N, K27C counted along it
Procedure: as §1

[11] = target: T11, rI-FABP (SEQ ID NO: 3) variant L2P14F7 MGI KR14 K27K, MGI - KR14 - 18G 27K 31M 72A (Rattus norvegicus, UniProt P02693, G32M/K101R/K126R/K17R/K21R/K30R/K38R/K47R/K51R/K89R/K8R/K93R/K95R/L73A/M19G); assay: bilirubin binding to L2P14F7 MGI KR14 K27K probe; settings: Table 6, acrylodan
T11 construct: made in house
T11 sequence (P02693 with tags, fused parts or gaps with the stated changes): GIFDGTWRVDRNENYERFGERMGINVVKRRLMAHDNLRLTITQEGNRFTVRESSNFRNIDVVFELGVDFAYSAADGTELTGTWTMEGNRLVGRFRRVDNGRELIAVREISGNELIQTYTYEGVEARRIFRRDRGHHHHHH
Procedure: as §1

[12] = target: T12, rI-FABP (SEQ ID NO: 3) variant L24P19 C7 K27A, 14R 18L 27A 38V 60R 73F 106C 115R 117D (Rattus norvegicus, UniProt P02693, A74F/K28A/L39V/L73A/M19L/Q116R/R107C/V61R/Y118D/Y15R); assay: bilirubin binding to L24P19C7 K27A probe; settings: Table 5, acrylodan
T12 construct: made in house
T12 sequence (P02693 with tags, fused parts or gaps Y15R/M19L/K28A/L39V/V61R/L73A/A74F/R107C/Q116R/Y118D): as the sequence (P02693 with tags, fused parts or gaps Y15R/M19L/N25C/L39V/V61R/L73A/A74F/R107C/Q116R/Y118D) above, with C24N, K27A counted along it
Procedure: as §1

T1 sequence (P02693 with tags, fused parts or gaps with the stated changes): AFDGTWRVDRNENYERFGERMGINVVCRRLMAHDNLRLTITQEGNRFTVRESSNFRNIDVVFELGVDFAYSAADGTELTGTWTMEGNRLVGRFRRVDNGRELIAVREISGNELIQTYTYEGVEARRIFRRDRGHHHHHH

Kd [1]: 0.53 µM
Kd [2]: 0.118 µM
Kd [3]: 0.25 µM
Kd [4]: 0.4 µM
Kd [5]: 0.089 µM
Kd [6]: 0.4 µM
Kd [7]: 0.019 µM
Kd [8]: 0.019 µM
Kd [9]: 0.026 µM
Kd [10]: 0.242 µM
Kd [11]: 0.084 µM
Kd [12]: 0.021 µM
Structure (SMILES): C=CC1=C(C)/C(=C/c2[nH]c(Cc3[nH]c(/C=C4\NC(=O)C(C)=C4C=C)c(C)c3CCC(=O)O)c(CCC(=O)O)c2C)NC1=O [bilirubin]
